In ChEMBL document CHEMBL5465560, “Selectivity Literature for EUbOPEN Chemogenomic Library” (2024):
One block for each compound: values may come before it.

How the values were obtained:
[1] = target: Poly [ADP-ribose] polymerase 1 (Homo sapiens, UniProt P09874); experiment: Selectivity interaction (Enzymatic assay (Reaction Biology)) EUB0001632a PARP1
[2] = target: Calcium/calmodulin-dependent protein kinase kinase 2 (Homo sapiens) (UniProt Q96RR4); experiment: Selectivity interaction (KinomeScan (DiscoverX)) EUB0000666a CAMKK2; settings: at 10 µM
[3] = target: RAC-beta serine/threonine-protein kinase (Homo sapiens) (UniProt P31751); experiment: Selectivity interaction (Upstate Kinase Profiler service (Millipore)) EUB0000056c AKT2; settings: at 1 µM
[4] = target: T1, Interleukin-1 receptor-associated kinase 3 (Homo sapiens) (UniProt Q9Y616); experiment: Selectivity interaction (ActivX KiNativ screen (kinase selectivity in THP-1 cell lysates)) EUB0000639a IRAK3; type: subcellular; settings: lysate, at 0.01 µM
T1 sequence (whole entry): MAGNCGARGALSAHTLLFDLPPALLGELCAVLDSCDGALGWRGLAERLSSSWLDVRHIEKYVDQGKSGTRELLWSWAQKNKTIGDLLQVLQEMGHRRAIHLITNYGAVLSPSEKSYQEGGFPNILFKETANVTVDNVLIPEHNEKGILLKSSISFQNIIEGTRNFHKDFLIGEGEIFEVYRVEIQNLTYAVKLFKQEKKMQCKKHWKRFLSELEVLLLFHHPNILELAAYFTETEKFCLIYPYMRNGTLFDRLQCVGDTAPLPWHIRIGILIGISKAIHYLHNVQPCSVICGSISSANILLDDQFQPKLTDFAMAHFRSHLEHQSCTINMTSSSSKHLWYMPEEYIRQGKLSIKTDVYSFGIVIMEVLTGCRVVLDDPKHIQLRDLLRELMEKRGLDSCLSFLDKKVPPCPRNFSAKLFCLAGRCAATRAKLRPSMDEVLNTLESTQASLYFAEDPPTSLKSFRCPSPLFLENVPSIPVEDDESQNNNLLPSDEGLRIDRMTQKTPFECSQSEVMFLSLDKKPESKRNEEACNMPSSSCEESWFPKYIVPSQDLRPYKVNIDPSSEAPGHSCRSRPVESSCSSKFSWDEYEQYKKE

[5] = target: T2, Serine/threonine-protein kinase 3 (Homo sapiens) (UniProt Q13188); experiment: Selectivity interaction (ProQinase) EUB0000171b STK3
T2 sequence (whole entry): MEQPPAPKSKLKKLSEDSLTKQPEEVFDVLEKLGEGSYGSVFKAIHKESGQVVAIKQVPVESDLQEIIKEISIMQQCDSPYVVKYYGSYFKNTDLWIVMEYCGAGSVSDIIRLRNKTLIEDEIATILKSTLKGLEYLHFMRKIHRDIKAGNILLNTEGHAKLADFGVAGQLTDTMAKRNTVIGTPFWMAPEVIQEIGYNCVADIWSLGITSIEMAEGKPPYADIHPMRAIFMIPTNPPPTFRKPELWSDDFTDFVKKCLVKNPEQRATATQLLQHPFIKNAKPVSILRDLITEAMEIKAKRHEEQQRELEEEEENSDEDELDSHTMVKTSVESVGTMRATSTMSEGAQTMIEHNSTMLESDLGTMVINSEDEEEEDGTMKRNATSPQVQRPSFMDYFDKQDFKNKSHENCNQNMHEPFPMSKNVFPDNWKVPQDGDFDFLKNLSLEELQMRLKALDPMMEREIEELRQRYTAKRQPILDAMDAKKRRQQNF

[6] = target: Serine/threonine-protein kinase 25 (Homo sapiens) (UniProt O00506); experiment: Selectivity interaction (Ambit KINOMEscan and KiNATiv profiling in Jurkat cells) EUB0000090b STK25; type: cell-based; settings: at 1 µM
[7] = target: Ribosomal protein S6 kinase alpha-5 (Homo sapiens) (UniProt O75582); experiment: Selectivity interaction (Kinase panel (DSF assay)) EUB0001558a RPS6KA5
[8] = target: Serine/threonine-protein kinase PLK1 (Homo sapiens, UniProt P53350)
[9] = target: Serine/threonine-protein kinase NIM1 (Homo sapiens, UniProt Q8IY84); experiment: Selectivity interaction (KinomeScan (DiscoverX)) EUB0000045b NIM1K
[10] = target: T3, Calcium/calmodulin-dependent protein kinase type IV (Homo sapiens) (UniProt Q16566); experiment: Selectivity interaction (Kinase panel (KiNativ target engagement assay in Jurkat cells)) EUB0001635a CAMK4; type: cell-based; settings: Selectivity number of off-targets 0.0, Selectivity number of targets 233.0, Source Knowledge https://www.sciencedirect.com/science/article/pii/S2451945619300674?via%3Dihub, at 1 µM
T3 sequence (whole entry): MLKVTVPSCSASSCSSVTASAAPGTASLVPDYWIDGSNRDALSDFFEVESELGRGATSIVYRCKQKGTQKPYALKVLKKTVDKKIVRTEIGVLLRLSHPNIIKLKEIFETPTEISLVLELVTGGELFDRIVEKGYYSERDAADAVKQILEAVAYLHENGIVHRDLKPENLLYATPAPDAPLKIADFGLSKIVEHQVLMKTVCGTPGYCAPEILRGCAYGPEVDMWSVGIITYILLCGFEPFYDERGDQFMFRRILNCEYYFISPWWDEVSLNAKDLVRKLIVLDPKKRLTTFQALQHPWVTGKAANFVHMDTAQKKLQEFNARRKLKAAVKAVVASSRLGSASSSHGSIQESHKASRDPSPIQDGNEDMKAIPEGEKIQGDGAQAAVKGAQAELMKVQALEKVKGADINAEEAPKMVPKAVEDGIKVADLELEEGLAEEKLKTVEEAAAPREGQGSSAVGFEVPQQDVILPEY

[11] = target: T4, Mitogen-activated protein kinase kinase kinase 3 (Homo sapiens) (UniProt Q99759); experiment: Selectivity interaction (ActivX KiNativ screen (ex vivo kinase selectivity in human PBMCs)) EUB0001619a MAP3K3; type: cell-based; settings: PBMC, at 1 µM
T4 sequence (whole entry): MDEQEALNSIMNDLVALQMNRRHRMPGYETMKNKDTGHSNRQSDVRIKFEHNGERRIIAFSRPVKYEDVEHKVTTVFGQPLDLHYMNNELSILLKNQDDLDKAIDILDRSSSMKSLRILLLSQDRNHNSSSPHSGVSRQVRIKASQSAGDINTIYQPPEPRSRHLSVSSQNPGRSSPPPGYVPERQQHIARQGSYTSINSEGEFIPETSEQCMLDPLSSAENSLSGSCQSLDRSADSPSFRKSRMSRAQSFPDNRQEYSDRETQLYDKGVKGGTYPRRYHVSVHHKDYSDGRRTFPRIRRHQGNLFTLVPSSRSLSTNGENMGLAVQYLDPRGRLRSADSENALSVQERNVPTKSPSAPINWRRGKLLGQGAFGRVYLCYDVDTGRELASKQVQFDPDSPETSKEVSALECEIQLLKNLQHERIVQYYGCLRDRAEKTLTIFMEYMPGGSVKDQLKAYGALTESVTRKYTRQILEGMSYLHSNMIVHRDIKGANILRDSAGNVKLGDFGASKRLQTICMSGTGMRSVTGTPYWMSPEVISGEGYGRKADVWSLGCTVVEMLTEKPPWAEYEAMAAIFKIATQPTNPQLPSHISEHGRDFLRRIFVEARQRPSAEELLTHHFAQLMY

Sequence of Serine/threonine-protein kinase NIM1 (Q8IY84 whole entry): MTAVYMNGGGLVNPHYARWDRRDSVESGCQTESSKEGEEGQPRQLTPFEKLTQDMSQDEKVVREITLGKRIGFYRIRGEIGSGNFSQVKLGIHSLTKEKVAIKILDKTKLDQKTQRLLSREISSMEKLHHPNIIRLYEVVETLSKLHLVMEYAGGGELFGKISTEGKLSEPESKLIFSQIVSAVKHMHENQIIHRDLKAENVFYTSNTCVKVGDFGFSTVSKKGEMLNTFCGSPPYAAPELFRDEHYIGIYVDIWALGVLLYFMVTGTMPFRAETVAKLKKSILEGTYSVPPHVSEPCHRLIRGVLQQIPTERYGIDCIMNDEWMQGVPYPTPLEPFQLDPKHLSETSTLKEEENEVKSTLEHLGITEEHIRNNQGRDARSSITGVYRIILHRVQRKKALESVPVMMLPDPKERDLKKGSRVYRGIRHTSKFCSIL
Sequence of Calcium/calmodulin-dependent protein kinase kinase 2 (Homo sapiens) (Q96RR4 2-588 limits assumed): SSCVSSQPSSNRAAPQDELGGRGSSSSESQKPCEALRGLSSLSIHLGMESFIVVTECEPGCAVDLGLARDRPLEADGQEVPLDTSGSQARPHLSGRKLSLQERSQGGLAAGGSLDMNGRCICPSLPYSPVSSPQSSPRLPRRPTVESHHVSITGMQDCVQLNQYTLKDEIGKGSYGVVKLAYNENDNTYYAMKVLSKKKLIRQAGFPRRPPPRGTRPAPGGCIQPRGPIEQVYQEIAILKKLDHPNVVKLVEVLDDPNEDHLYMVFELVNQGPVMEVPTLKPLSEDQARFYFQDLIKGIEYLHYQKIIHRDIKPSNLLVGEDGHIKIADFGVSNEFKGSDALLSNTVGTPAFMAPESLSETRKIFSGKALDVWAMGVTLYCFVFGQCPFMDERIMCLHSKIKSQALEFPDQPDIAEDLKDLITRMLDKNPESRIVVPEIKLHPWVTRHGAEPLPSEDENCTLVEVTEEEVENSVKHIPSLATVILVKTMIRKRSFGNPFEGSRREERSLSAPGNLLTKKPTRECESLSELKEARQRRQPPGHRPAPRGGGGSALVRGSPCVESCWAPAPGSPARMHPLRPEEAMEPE
Sequence of Ribosomal protein S6 kinase alpha-5 (Homo sapiens) (O75582 whole entry, looked up): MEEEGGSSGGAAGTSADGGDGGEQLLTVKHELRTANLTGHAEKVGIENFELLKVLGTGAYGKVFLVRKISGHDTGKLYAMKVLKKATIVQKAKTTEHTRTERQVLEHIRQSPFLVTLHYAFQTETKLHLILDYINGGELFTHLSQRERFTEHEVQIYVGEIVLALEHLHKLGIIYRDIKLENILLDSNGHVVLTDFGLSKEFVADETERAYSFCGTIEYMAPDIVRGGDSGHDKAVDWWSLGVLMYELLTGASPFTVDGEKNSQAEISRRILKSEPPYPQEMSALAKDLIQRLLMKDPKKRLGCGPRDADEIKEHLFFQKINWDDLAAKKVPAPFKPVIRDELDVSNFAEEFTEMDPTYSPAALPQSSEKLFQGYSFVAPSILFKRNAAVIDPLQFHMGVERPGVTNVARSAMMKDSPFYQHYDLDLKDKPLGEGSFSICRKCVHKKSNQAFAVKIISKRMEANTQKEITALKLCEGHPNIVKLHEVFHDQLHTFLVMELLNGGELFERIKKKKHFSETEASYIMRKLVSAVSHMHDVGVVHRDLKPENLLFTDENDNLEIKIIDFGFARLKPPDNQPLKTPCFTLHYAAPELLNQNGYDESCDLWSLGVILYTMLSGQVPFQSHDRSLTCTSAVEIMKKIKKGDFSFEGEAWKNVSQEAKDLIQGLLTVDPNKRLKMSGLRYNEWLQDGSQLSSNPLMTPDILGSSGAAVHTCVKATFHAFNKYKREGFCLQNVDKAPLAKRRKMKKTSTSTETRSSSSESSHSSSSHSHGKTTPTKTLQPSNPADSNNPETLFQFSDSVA
Sequence of Poly [ADP-ribose] polymerase 1 (P09874 whole entry): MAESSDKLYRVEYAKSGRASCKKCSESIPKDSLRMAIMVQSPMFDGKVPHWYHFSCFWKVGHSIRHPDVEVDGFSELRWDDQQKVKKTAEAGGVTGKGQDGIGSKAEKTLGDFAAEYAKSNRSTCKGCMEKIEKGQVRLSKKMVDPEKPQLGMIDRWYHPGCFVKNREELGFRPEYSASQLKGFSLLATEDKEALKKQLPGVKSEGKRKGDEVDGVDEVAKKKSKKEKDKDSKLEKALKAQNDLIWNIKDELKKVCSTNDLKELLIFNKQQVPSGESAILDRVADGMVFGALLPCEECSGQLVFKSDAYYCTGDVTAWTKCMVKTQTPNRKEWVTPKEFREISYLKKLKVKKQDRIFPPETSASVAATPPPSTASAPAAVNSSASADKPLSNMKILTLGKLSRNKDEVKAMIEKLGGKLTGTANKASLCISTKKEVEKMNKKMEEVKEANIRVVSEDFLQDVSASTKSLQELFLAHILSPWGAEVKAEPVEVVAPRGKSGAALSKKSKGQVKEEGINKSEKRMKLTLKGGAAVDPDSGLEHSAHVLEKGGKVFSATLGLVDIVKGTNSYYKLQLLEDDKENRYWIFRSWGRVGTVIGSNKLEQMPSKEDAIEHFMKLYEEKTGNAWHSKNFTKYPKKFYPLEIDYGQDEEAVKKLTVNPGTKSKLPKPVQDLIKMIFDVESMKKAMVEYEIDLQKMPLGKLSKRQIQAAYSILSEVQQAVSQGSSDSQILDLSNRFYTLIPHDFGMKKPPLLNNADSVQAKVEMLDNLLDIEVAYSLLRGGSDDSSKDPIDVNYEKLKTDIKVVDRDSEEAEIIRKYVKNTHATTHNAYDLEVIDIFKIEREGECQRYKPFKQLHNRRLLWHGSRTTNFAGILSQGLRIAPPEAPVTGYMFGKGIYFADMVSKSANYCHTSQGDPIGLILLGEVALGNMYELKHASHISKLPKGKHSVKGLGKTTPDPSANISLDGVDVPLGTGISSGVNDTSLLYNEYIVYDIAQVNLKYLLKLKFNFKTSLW
Sequence of Serine/threonine-protein kinase PLK1 (P53350 whole entry): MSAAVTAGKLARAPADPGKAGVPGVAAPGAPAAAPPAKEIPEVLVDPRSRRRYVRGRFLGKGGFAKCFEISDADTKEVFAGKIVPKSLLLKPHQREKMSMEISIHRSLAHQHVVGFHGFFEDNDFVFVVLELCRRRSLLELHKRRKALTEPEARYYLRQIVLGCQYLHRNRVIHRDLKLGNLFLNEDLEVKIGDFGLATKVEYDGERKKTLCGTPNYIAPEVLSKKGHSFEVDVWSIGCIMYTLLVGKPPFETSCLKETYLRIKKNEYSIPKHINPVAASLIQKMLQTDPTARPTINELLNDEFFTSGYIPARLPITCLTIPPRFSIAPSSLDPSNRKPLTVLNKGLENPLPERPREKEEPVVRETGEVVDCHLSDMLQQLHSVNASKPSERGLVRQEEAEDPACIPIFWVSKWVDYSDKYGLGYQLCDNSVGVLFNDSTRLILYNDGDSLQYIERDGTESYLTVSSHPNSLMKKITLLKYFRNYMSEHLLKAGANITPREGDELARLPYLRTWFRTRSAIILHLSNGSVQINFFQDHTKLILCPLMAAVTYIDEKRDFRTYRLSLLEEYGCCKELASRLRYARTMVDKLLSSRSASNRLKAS
Sequence of RAC-beta serine/threonine-protein kinase (Homo sapiens) (P31751 whole entry): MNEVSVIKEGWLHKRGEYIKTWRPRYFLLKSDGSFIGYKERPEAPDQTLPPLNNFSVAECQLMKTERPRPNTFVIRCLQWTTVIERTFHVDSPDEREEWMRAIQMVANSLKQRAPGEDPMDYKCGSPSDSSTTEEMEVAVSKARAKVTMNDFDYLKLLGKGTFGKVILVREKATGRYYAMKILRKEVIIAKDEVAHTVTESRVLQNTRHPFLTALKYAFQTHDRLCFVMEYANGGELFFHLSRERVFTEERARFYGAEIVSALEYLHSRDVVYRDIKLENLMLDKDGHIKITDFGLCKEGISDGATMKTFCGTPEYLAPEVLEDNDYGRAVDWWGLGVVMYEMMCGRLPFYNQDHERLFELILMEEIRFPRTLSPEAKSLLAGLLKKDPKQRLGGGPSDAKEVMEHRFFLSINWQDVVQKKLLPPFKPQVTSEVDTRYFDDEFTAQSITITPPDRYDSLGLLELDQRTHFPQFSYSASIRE
Sequence of Serine/threonine-protein kinase 25 (Homo sapiens) (O00506 whole entry, looked up): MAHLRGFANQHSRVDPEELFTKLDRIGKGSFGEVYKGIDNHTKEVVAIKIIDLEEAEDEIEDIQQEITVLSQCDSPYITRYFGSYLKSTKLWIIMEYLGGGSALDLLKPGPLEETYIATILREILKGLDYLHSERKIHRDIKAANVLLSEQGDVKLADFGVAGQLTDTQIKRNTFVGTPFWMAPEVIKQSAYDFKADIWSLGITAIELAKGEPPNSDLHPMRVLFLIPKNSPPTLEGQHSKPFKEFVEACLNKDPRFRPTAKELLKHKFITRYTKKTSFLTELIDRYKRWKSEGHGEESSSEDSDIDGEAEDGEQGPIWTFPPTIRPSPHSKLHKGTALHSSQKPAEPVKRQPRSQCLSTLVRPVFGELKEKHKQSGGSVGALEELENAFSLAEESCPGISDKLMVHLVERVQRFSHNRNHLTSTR

IC50 [1]: > 10 µM
Compound: Cn1cc(-n2cnc3c(NCc4nc5cc(Cl)c(Cl)cc5[nH]4)nc(N4CCOCC4)nc32)cn1

Compound: O=C(NOC[C@H](O)CO)c1ccc(F)c(F)c1Nc1ccc(I)cc1F
% of control [2]: 100%

% of inhibition [3]: -9%
Compound: Cc1ccc(-c2ccc3c(ccc4sc5c(c43)NC[C@@H](C)NC5=O)n2)cn1

% of inhibition [4]: -5.3%
Compound: CC[C@@H]1[C@H](F)C(=O)N[C@@H]1COc1nccc2cc(C(N)=O)c(OC)cc12 [ZIMLOVISERTIB]

% of control ([5]; at 1 µM): 83% | % of control ([5]; at 5 µM): 69%
Compound: C=CC(=O)Nc1cccc(C(=O)Nc2ccc(Nc3cc(-c4[nH]c(SC)nc4C)ccn3)cc2)c1

Compound: CN(C)C/C=C/C(=O)Nc1ccc(C(=O)N2CCCC(Nc3ncc(Cl)c(-c4c[nH]c5ccccc45)n3)C2)cc1 (stereo not drawn)
% of control [6]: 77%

Compound: CC(C)(O)[C@H](F)CN1Cc2cc(NC(=O)c3cnn4cccnc34)c(N3CCOCC3)cc2C1=O
dTM [7]: 0.5 K

IC50 [8]: > 10 µM
Compound: CCc1cccc(CC)c1NC(=O)c1nn(C)c2c1CCc1cnc(Nc3ccc(C(=O)NC4CCN(C)CC4)cc3OC(F)(F)F)nc1-2

Compound: C=CC(=O)Nc1cc(-n2c(=O)ccc3cnc4ccc(-c5ccc(NS(C)(=O)=O)cc5)cc4c32)ccc1C
% of control ([9]; at 1 µM): 100% | % of control ([9]; at 10 µM): 100%

Compound: C=CC(=O)Nc1ccc(C(=O)Nc2[nH]nc3c2CN(C(=O)N[C@H](CN(C)C)c2ccccc2)C3(C)C)cc1
% of engagement [10]: -8.6%

Compound: N#Cc1cccc(-c2c[nH]c3ncnc(N4CCOCC4)c23)c1
% of inhibition [11]: 13%
